From patent US20230241226A1, “COMPOUNDS FOR TARGETED DEGRADATION OF CARRIER PROTEINS AND USES THEREOF” (CeMM - Forschungszentrum für Molekulare Medizin GmbH, priority 2019, published 2023) come the findings set out here.

Residues, ends and D or L forms follow the SMILES beside them. *: point of attachment. Cbz = O=C(OCc1ccccc1)*

In assay [1] the test system is dTAG-HA SLCs. Put plainly: dTAG-driven SLC degradation, statements across SLCs (temporal control, chemical rescue). The class given is cell-based, human. The settings on record: HAP1; 0.5 µM dTAG7 12 or 18 hours; MLN4924 1 µM, pomalidomide 10 µM, bortezomib 1 µM, MG-132 1 µM, bafilomycin A1 2.5 µM. As to the method: (D)Chemical “rescue” of dTAG-driven degradation of SLCs. HAP1 cell lines expressing dTAG-HA SLC1A5 or dTAG-HA SLC38A9 were treated with 0.5 µM dTAG7 for 12 or 18 hours, respectively. These cells were also treated with chloroquine (CQ, 50 µM), bortezomib (bort., 1 µM), MG-132 (MG, 1 µM), MLN4924 (MLN, 1 µM), pomalidomide (poma., 10 µM), or bafilomycin A1 (bafi., 2.5 µM). SLC degradation was rescued by inhibiting CRL activity or the proteasome, but not by inhibiting the lysosome machinery.
Western blotting with antibodies against the HA-tag and the total protein mirrored the observed pattern.
(D) Chemical “rescue” of dTAG driven degradation. HAP1 cell lines expressing dTAGHA SLC2A3, 39A7, […], and MTCH2 were treated with 0.5 µM dTAG7 for 12 hours. A cell line expressing dTAG-HA SLC38A2 was treated with 0.5 µM dTAG7 for 18 hours. These cells were treated with MLN4924 (MLN, 1 µM), pomalidomide (poma., 10 µM), or bafilomycin A1 (bafi., 2.5 µM) to monitor the inhibition of degradation.
(§1) For immunoblotting, whole cell extracts were prepared using RIPA lysis buffer (25 mM Tris/HCl pH 7.6, 150 mM NaCl, 1% NP-40, 1% sodium deoxycholate, 0.1% SDS, EDTA-free protease inhibitor (Roche) and phosphatase inhibitors 2+3 (Sigma- Aldrich)). Cell extracts were incubated for 15 min on ice in 50 µL RIPA buffer. Lysates were cleared by centrifugation (20,000 g, 10 min, 4° C.). Protein extracts were quantified and normalized using the BCA assay (Thermo Scientific). Where indicated, cleared lysates where treated with the enzyme PNGase (NEB) to deglycosylate the proteins. Lämmli Sample Buffer 4x was added to protein extract samples without boiling. Cell lysates were run on SDS-polyacrylamide gel in tris-glycine running buffer and transferred to nitrocellulose membranes Amersham Protran 0.45 µm (GE Healthcare), according to standard methods. The membranes were incubated with the antibodies indicated below and visualized with horseradish peroxidase-conjugated secondary antibodies (described below) using the ECL Western blotting system (Thermo Scientific). The following antibodies were used: GAPDH (Santa Cruz, sc-365062), Actin (Cyoskeleton Inc., #AAN01), HA (Covance, cat #MMS-101R), HA (Cell Signaling, #3724), HA7-HRP (Sigma, H6533), HA (Roche, #11867423001), SLC9A1 (Santa Cruz, sc-136239), SLC2A1 (Cell Signaling, #12939), SLC38A1 (Cell Signaling, #36057). Secondary antibody for imaging goat anti-Rat IgG Alexa Fluor 488 (ThermoFisher, A11006). The following secondary antibodies were used for immunoblotting: goat anti-mouse HRP (115-035-003, Jackson ImmunoResearch) and goat anti-rabbit HRP (111-035-003, Jackson ImmunoResearch).
SLCs were ectopically expressed as fusions to a mutated FKBP domain, also known as the dTAG system. In brief, a dTAGed protein is amenable to degradation by specific chimeric degrader molecules (e.g. dTAG7/dTAG13) that simultaneously bind to the dTAG and the CRL4CRBN E3 ligase, inducing molecular proximity and ensuing degradation by the proteasome. Given that SLCs were expressed in all cellular compartments, the amenability of differentially located SLCs to targeted proteolysis was tested (FIG. 1A, upper graph). Each of the tested SLCs was stably expressed in HAP1 cells, and subcellular localization was assessed by immunofluorescence microscopy (FIG. 1B). In detail, SLCs located at the cell surface (SLC1A5, SLC38A1, SLC2A1, SLC2A3, SLC16A1, SLC4A4, SLC7A3), cell surface and vesicles (SLC38A2), lysosome (SLC38A9), Golgi (SLC35B2, SLC33A1), mitochondria (SLC25A26, SLC25A1, and MTCH2) and endoplasmic reticulum (SLC39A7, SLC30A9) were assayed. Cellular treatment with a specific degrader molecule (dTAG7 or dTAG13) led to identification of SLCs expressed at cell surface, endoplasmic reticulum and lysosome that were amenable to targeted degradation (FIGS. 1C, 5A). The dTAG could be placed on either N- or C-terminus of the SLC, if both face the cytoplasm (FIG. 5B), as exemplified by SLC2A3. […]

In assay [2] the target is T1, SLC9A1 (Homo sapiens, UniProt P19634).
T1 construct: endogenous in cells; host or cells: HAP1, KBM7 (WT and CRBN knockout)
T1 sequence (P19634 whole entry): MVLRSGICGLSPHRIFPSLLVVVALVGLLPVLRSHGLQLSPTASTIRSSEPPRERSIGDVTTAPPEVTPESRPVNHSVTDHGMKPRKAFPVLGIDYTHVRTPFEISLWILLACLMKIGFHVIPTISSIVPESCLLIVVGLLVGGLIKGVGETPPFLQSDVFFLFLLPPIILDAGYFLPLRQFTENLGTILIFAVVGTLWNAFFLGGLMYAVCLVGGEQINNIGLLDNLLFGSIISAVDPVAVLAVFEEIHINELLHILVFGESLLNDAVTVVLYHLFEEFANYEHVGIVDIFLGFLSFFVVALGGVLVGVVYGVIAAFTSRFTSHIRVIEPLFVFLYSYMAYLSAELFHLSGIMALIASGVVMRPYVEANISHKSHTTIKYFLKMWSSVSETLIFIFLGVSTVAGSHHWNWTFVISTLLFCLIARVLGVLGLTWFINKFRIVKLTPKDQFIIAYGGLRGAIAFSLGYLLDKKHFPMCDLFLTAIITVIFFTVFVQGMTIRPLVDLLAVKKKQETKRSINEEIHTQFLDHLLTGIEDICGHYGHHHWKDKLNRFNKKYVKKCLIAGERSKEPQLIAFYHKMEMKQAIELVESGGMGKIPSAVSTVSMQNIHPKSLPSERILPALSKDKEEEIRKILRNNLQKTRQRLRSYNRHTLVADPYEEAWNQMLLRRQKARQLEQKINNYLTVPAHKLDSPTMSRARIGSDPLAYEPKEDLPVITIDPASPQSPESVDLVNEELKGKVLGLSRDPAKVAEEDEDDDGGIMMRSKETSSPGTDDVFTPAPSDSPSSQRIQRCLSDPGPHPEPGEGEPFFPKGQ
Put plainly: Degradation of endogenous SLC9A1 (immunoblot). The format is cell-based. As to conditions: WT KBM7; 0.5 µM d9A1-2 16 hours; bortezomib 0.25 µM, MG-132 1 µM, MLN4924 1 µM, pomalidomide 1 µM, bafilomycin A1 10 µM. As to the method:
(B) HAP1 and KBM7 cells were treated with different concentrations of d9A1-2.
(C)Both WT and CRBN knockout KBM7 cell lines were treated with 1 µM d9A1-2 for 16 hours.
(D) Chemical “rescue” of d9A1-2 driven degradation. WT KBM7 cell lines were treated with 0.5 µM d9A1-2 for 16 hours. These cells were also treated with bortezomib (bort. 0.25 µM), MG-132 (MG, 1 µM), MLN4924 (MLN,1 µM), pomalidomide (poma., 1 µM), or bafilomycin A1 (bafi., 10 µM). All molecules, apart from bafilomycin, could rescue SLC9A1 from degradation.
(B) HAP1 cells were treated with a dose curve of the warhead, d9A1-1, d9A1-2, d9A1-3, d9A1-4, for 24 hours.
(C) KBM7 cells were treated with varying concentrations of d9A1-2.
HEK293T, LS180 were obtained from ATCC (Manassas, VA, USA), HAP1 WT, HAP1 -/-SLC38A2 (HZGHC001975c003), HAP1 -/-SLC38A9 (HZGHC000777c011) were obtained from Horizon Genomics. Other cell lines utilized here: CAKI (a gift of Georg Winter’s lab), SW620, SW480 (both a gift from Walter Berger’s lab, Medical University Vienna), LOVO, HCT15 (both a gift from Chris Gasche), KBM7 (a gift from Thijn Brummelkamp’s lab), KBM7 -/- CRBN was described in Mayor-Ruiz et al. Cells were cultured, according to the ATCC recommendation in DMEM, RPMI or IMDM medium (Gibco) supplemented with 10% (v/v) FBS and antibiotics (100 U/ml penicillin and […] streptomycin). Knock-in single cell clones of dTAG-HA SLC38A2 HAP1 cell line were generated as previously described. For starvation, culture media was replaced with media without amino acids or FBS.
as §1
MG132, Bortezomib, Pomalidomide were obtained from Selleckchem. MLN4924 was obtained from MedchemExpress. Bafilomycin was obtained from Enzo Life Sciences. dTAG13 was a generous gift from the Nathanael Gray laboratory, Dana Farber Cancer Institute. The d9A1 degrader series (warhead, d9A1-1 to d9A1-4) was synthesized by Wuxi AppTec. All chemicals were dissolved in DMSO (Sigma-Aldrich) and utilized at the concertation described in respective figures.

For the compound `CO/C1=C\C(C)=C\[C@@H](C)[C@@H](O)[C@@H](C)C/C(C)=C/C=C/[C@H](OC)[C@@H]([C@@H](C)[C@@H](O)[C@H](C)[C@@]2(O)C[C@@H](O)[C@H](C)[C@@H](C(C)C)O2)OC1=O` [bafilomycin A1], the “effect of co-treatment on dTAG7 mediated SLC degradation (chemical rescue)” value in assay [1] is given as “degradation appeared unaffected”.

As for `CC(C)C[C@@H](C=O)NC(=O)[C@H](CC(C)C)NC(=O)[C@H](CC(C)C)NC(=O)OCc1ccccc1` [MG132] (Cbz-Leu-Leu-Leu-aldehyde), the “effect of co-treatment on dTAG7 mediated SLC degradation (chemical rescue)” value in assay [1] was “rescued SLCs degradation”. For the same compound, the “effect of co-treatment on d9A1-2 driven SLC9A1 degradation (chemical rescue)” value in assay [2] is “rescued SLCs degradation”.

Regarding `Nc1cccc2c1C(=O)N(C1CCC(=O)NC1=O)C2=O` (stereo not drawn) [pomalidomide], the “effect of co-treatment on dTAG7 mediated SLC degradation (chemical rescue)” value in assay [1] is recorded as “prevented measurable SLC degradation”. In addition, in assay [2], the “effect of co-treatment on d9A1-2 driven SLC9A1 degradation (chemical rescue)” value is on record as “blocked d9A1-2-induced degradation of SLC9A1”.

`CC(C)C[C@H](NC(=O)[C@H](Cc1ccccc1)NC(=O)c1cnccn1)B(O)O` [bortezomib]: the “effect of co-treatment on dTAG7 mediated SLC degradation (chemical rescue)” value in assay [1] was “rescued SLCs degradation”. Further, the “effect of co-treatment on d9A1-2 driven SLC9A1 degradation (chemical rescue)” value in assay [2] was “rescued SLCs degradation”.

In the case of `NS(=O)(=O)OC[C@@H]1C[C@@H](n2ccc3c(N[C@H]4CCc5ccccc54)ncnc32)C[C@@H]1O` [MLN4924], the “effect of co-treatment on dTAG7 mediated SLC degradation (chemical rescue)” value in assay [1] was “blocked”. Also, the “effect of co-treatment on d9A1-2 driven SLC9A1 degradation (chemical rescue)” value in assay [2] is on record as “abrogated”.
